This is an account of results in the RepoRT retention time repository (doi:10.1016/j.jchromb.2020.122105).

Conditions in all cases: stereoisomer not certain
Data set [1] is described as follows: RP, Waters CORTECS T3, 100 × 2.1 mm, 2.7 µm, 0.3 mL/min, estimated dead time 0.73 min; A: water + 0.1% formic acid, pH 3; B: methanol + 0.1% formic acid, pH 3; gradient (min/%B) 0/5 5/5 25/100 30/100 30.1/5 35/5.
Data set [2] in a line: RP, Waters CORTECS T3, 100 × 2.1 mm, 2.7 µm, 0.3 mL/min, estimated dead time 0.73 min; A: water + 0.1% formic acid, pH 3; B: methanol + 0.1% formic acid, pH 3; gradient (min/%B) 0/0 5/0 25/100 30/100 30.1/0 35/0.
Data set [3] in a line: RP, Waters CORTECS T3, 100 × 2.1 mm, 2.7 µm, 0.2 mL/min, estimated dead time 1.1 min; A: water + 0.1% formic acid, pH 3; B: methanol + 0.1% formic acid, pH 3; gradient (min/%B) 0/0 1/0 6/5 30/100 35/100 35.1/0 40/0.
The nature of data set [4]: RP, Waters CORTECS T3, 100 × 2.1 mm, 2.7 µm, 0.1 mL/min, estimated dead time 2.2 min; A: water + 0.1% formic acid, pH 3; B: methanol + 0.1% formic acid, pH 3; gradient (min/%B) 0/0 1/0 6/5 30/100 35/100 35.1/0 40/0.
Data set [5] is described as follows: RP, Waters CORTECS T3, 100 × 2.1 mm, 2.7 µm, 0.15 mL/min, estimated dead time 1.5 min; A: water + 0.1% formic acid, pH 3; B: methanol + 0.1% formic acid, pH 3; gradient (min/%B) 0/0 1/0 6/5 30/100 35/100 35.1/0 40/0.
The nature of data set [6]: RP, Waters CORTECS T3, 100 × 2.1 mm, 2.7 µm, 0.25 mL/min, estimated dead time 0.88 min; A: water + 0.1% formic acid, pH 3; B: methanol + 0.1% formic acid, pH 3; gradient (min/%B) 0/0 1/0 6/5 30/100 35/100 35.1/0 40/0.
A short description of data set [7]: RP, Waters CORTECS T3, 100 × 2.1 mm, 2.7 µm, 0.1 mL/min, estimated dead time 2.2 min; A: water + 0.1% formic acid, pH 3; B: methanol + 0.1% formic acid, pH 3; gradient (min/%B) 0/5 5/5 25/95 25.1/100 35/100 35.1/5 45/5.
Data set [8] can be described thus: RP, Thermo Scientific Hypercarb, 150 × 2.1 mm, 5 µm, 0.1 mL/min, estimated dead time 3.3 min; A: water + 0.1% formic acid, pH 3; B: methanol + 0.1% formic acid, pH 3; gradient (min/%B) 0/5 5/5 20/100 35/100 35.1/5 45/5.
Data set [9] can be described thus: RP, Waters CORTECS T3, 100 × 2.1 mm, 2.7 µm, 0.3 mL/min, estimated dead time 0.73 min; A: water + 0.1% formic acid, pH 3; B: methanol + 0.1% formic acid, pH 3; gradient (min/%B) 0/5 5/5 25/95 25.1/100 35/100 35.1/5 45/5.
Data set [10] is described as follows: RP, Waters ACQUITY UPLC BEH C18, 100 × 2.1 mm, 1.7 µm, 0.1 mL/min, estimated dead time 2.2 min; A: water + 0.1% formic acid, pH 3; B: methanol + 0.1% formic acid, pH 3; gradient (min/%B) 0/5 5/5 25/100 30/100 30.1/5 35/5.
Data set [11] in a line: RP, Waters CORTECS T3, 100 × 2.1 mm, 2.7 µm, 0.2 mL/min, estimated dead time 1.1 min; A: water + 0.045% formic acid + 0.11% ammonium hydroxide, pH 7; B: methanol; gradient (min/%B) 0/5 5/5 25/95 25.1/100 35/100 35.1/5 45/5.
Data set [12] can be described thus: RP, Waters ACQUITY UPLC BEH C18, 100 × 2.1 mm, 1.7 µm, 0.1 mL/min, estimated dead time 2.2 min; A: water + 0.1% formic acid, pH 3; B: methanol + 0.1% formic acid, pH 3; gradient (min/%B) 0/5 5/5 25/95 25.1/100 35/100 35.1/5 45/5.
Experiment in data set [13]: as above
The source holds these as a separate data set.

The nature of data set [14]: RP, Waters ACQUITY UPLC BEH C18, 100 × 2.1 mm, 1.7 µm, 0.1 mL/min, estimated dead time 2.2 min; A: water + 0.045% formic acid + 0.11% ammonium hydroxide, pH 7; B: methanol; gradient (min/%B) 0/5 5/5 25/95 25.1/100 35/100 35.1/5 45/5.
Data set [15] in a line: RP, Waters CORTECS T3, 100 × 2.1 mm, 2.7 µm, 0.3 mL/min, estimated dead time 0.73 min; A: water + 0.1% formic acid, pH 3; B: methanol + 0.1% formic acid, pH 3; gradient (min/%B) 0/0 1/0 6/5 30/100 35/100 35.1/0 40/0.
The nature of data set [16]: RP, Waters ACQUITY UPLC BEH C18, 100 × 2.1 mm, 1.7 µm, 0.2 mL/min, estimated dead time 1.1 min; A: water + 0.025% formic acid + 20 mM ammonium acetate + 0.055% ammonium hydroxide, pH 7; B: methanol; gradient (min/%B) 0/5 5/5 25/100 30/100 30.1/5 35/5.

As to `CC1C(=O)Nc2ccccc21` (configuration not stated) [3-METHYL-2-OXINDOLE], the LC retention time in data set [1] was 13.3 min; in data set [2], 14.2 min; in [3], 17 min; in data set [4] it was 15.2 min; in data set [5], 18.4 min; in data set [6] it was 16.1 min. For the same molecule, the LC retention time was 18.8 min in [7]; 32.3 min in data set [8]; 13.6 min in [9]; 18.9 min in data set [10]; 15.2 min in data set [11]; 19.2 min in data set [12]. In addition, the LC retention time in data set [13] and in data set [14] was 19.2 min each time.

With `C=CC1=C(C)C(C=c2[nH]c(=Cc3[nH]c(C=C4NC(=O)C(C)=C4C=C)c(C)c3CCC(=O)O)c(CCC(=O)O)c2C)=NC1=O` [BILIVERDIN], the LC retention time in data set [3] is 23.5 min; in [4], 21 min; in data set [5], 24.7 min; in [15], 22.6 min; in [6], 22.9 min; in [7], 23.8 min. Besides, the LC retention time in data set [9] is 19.9 min; in data set [10], 22.8 min; in [11], 20.9 min; in [12], 23.5 min; in data set [13] it was 23.5 min; in data set [14] it was 23.4 min. The LC retention time in [16] is 19.9 min.

With `Cn1c(=O)c2c(ncn2C)n(C)c1=O` [CAFFEINE], the LC retention time in data set [1] was 10.1 min; in [2] it was 11.1 min; in [3], 13 min; in data set [4] it was 11.5 min; in data set [5] it was 14.2 min; in data set [15] it was 11.7 min. The LC retention time was 12.2 min in [6]; 14.7 min in data set [7]; 10.2 min in data set [9]; 14.4 min in data set [10]; 11.6 min in data set [11]; 14.6 min in data set [12]. The LC retention time in data set [13] is 14.6 min; in data set [14], 14.6 min; in [16], 11.3 min.

For the molecule `CC12CCC(=O)C=C1CCC1C2C(O)CC2(C)C1CCC2(O)C(=O)CO` (configuration not stated) [CORTISOL], the LC retention time is 16.7 min in [1]; 17.3 min in data set [2]; 20.8 min in data set [3]; 18.5 min in data set [4]; 22 min in data set [5]; 19.4 min in data set [15]. For the same molecule, the LC retention time in data set [6] was 20 min; in data set [7] it was 21.6 min; in [9] it was 17.2 min; in data set [10], 21.1 min; in data set [11] it was 18.5 min; in data set [12] it was 21.6 min. Moreover, the LC retention time in data set [13] is 21.6 min; in data set [14], 21.6 min; in data set [16] it was 18.1 min.

With `CC12CCC(=O)C=C1CCC1C2C(=O)CC2(C)C1CCC2(O)C(=O)CO` (configuration not stated) [CORTISONE], the LC retention time in data set [1] is 16.3 min; in [2], 16.9 min; in data set [3], 20.2 min; in data set [4], 18 min; in data set [5] it was 21.4 min; in data set [15] it was 18.9 min. The LC retention time in data set [6] is 19.5 min; in [7], 21 min; in data set [9] it was 16.7 min; in data set [10], 20.5 min; in [11], 18 min; in data set [12] it was 21 min. In addition, the LC retention time is 21 min in data set [13], 21 min in data set [14] and 17.6 min in [16].

With `CC(=O)OCC(=O)C1CCC2C3CCC4=CC(=O)CCC4(C)C3CCC12C` (configuration not stated) [DEOXYCORTICOSTERONE ACETATE], the LC retention time is 20.4 min in data set [1]; 20.8 min in data set [2]; 25.2 min in data set [3]; 22.4 min in data set [4]; 26.3 min in [5]; 23.8 min in data set [15]. Also, the LC retention time in [6] was 24.4 min; in [7] it was 25.4 min; in data set [9], 21.1 min; in [10], 24.5 min; in data set [11], 22.4 min; in [12], 25.3 min. The results for the LC retention time in [13], in [14] and in data set [16] were 25.3 min, 25.3 min and 21.6 min, respectively.

Regarding `OCCc1c[nH]c2ccccc12` [INDOLE-3-ETHANOL], the LC retention time was 12.7 min in data set [1]; 13.6 min in data set [2]; 16.2 min in data set [3]; 14.5 min in [4]; 17.7 min in data set [5]; 14.6 min in data set [15]. Moreover, the LC retention time in data set [6] was 15.3 min; in data set [7], 18 min; in data set [9], 12.9 min; in data set [10], 18.2 min; in data set [11], 14.5 min; in data set [12], 18.5 min. In addition, the LC retention time in [13] was 18.5 min; in data set [14], 18.5 min; in [16] it was 14.7 min.

For the molecule `CSc1ncnc2nc[nH]c12` [THIOPURINE S-METHYLETHER], the LC retention time is 9.81 min in data set [1]; 11 min in data set [2]; 12.9 min in data set [3]; 11.4 min in data set [4]; 14.4 min in data set [5]; 11.4 min in data set [15]. The LC retention time in data set [6] is 12.1 min; in data set [7], 15.1 min; in data set [9], 9.92 min; in data set [10] it was 15.1 min; in [11] it was 11.7 min; in data set [12], 15.2 min. The LC retention time in data set [13] is 15.2 min; in [14], 15.3 min; in data set [16], 11.7 min.
